The test system of this assay is PKC mediated IL-2 production in human primary T cells. The assay is described as follows: IL-2 ELISA, human primary T cell, anti CD3+CD28+ (whole cell functional assay for PKC mediated IL-2 production). The format is cell-based. The procedure:
Human primary T cells were prepared as follows. Fresh PBMC's from All Cells (Cat # PB002) were re-suspended in RPMI (RPMI-1640 with L-Glutamine; Mediatech, Inc., Herndon Va., cat. #10-040-CM) with 10% FBS and seeded into flasks and incubated at 37° C. for 2 hours to allow the monocytes to adhere. The non-adherent cells were then centrifuged and re-suspended in RPMI medium containing 40 U/ml IL2 and seeded into a flask pre-coated with 1 μg/ml aCD3 and 5 ug/ml aCD28 (Anti-Human CD3, BD Pharmingen Catalog #555336, Anti-Human CD28, Beckman Coulter Catalog #IM1376). The cells were stimulated for 3-4 days, then transferred to a fresh flask and maintained in RPMI (RPMI-1640 with L-Glutamine; Mediatech, Inc., Herndon Va., cat. #10-040-CM) with 10% FBS and 40 U/ml IL-2.
Human primary T cells (100,000 cells per well) were pre-incubated with or without test compound in RPMI-1640 with L-Glutamine and 10% FBS for 1 hour at 37° C. Cells were then stimulated by transferring them to round-bottom 96-well plates pre-coated with 1 μg/ml aCD3 and 5 μg/ml aCD28. For counter assay, cells were instead stimulated by adding 8× stock solutions of PMA and ionomycin in RPMI-1640 with L-Glutamine and 10% FBS (for final concentrations of 0.5 ng/ml PMA and 0.1 μM ionomycin, both from Calbiochem). Cells were incubated at 37° C. for 24 hours before 100 μL supernatants were harvested for quantification of IL-2 by ELISA using Human IL-2 Duoset ELISA Kit from R and D Systems, Cat. # DY202E.
Compounds 1-156 were tested in a whole cell functional assay for PKC mediated IL-2 production as follows. Human primary T cell isolation and culture: Human primary T cells were prepared as follows. Whole blood was obtained from a healthy volunteer, mixed 1:1 with PBS, layered on to Ficoll Hypaque (Amersham Pharmacia Biotech, Piscataway, N.J., Catalog #17-1440-03) in 2:1 blood/PBS:ficoll ratio and centrifuged for 30 minutes at 4° C. at 1750 rpm. The cells at the serum: ficoll interface were recovered and washed twice with 5 volumes of PBS. These freshly isolated human peripheral blood mononuclear cells were cultured in Yssel's medium containing 40 U/ml IL2 in a flask pre-coated with 1 μg/ml aCD3 and 5 μg/ml aCD28 (Anti-Human CD3, BD Pharmingen Catalog #555336, Anti-Human CD28, Beckman Coulter Catalog #IM1376). The cells were stimulated for 3-4 days, then transferred to a fresh flask and maintained in RPMI (RPMI-1640 with L-Glutamine; Mediatech, Inc., Herndon Va., cat. #10-040-CM) with 10% FBS and 40 U/ml IL-2. The primary T-cells were then washed twice with PBS to remove the IL-2.
Primary T cell stimulation and IL2 ELISA: Human primary T cells (100,000 cells per well) were pre-incubated with or without test compound in Yssel's medium for 1 hour at 37° C. Cells were then stimulated by transferring them to round-bottom 96-well plates pre-coated with 1 μg/ml aCD3 and 5 μg/ml αCD28. For counter assay, cells were instead stimulated by adding 8× stock solutions of PMA and ionomycin in Yssels (for final concentrations of 0.5 ng/ml PMA and 0.1 uM ionomycin, both from Calbiochem). Cells were incubated at 37° C. for 24 hours before 100 μL supernatants were harvested for quantification of IL-2 by ELISA using Human IL-2 Duoset ELISA Kit from R and D Systems, Cat. # DY202E.
In general terms: ELISA stands for enzyme-linked immunosorbent assay.

Setting [1] is: 24 h, human primary T cells stimulated with anti-CD3 + anti-CD28, IL-2 by ELISA, read-out: IC50 for blocking IL-2 production.
The mark [2] stands for this setting: human primary T cells stimulated with anti-CD3 + anti-CD28, 24 h, IL-2 by ELISA, 8 pt, read-out: IL2 ELISA, Human primary T cell, anti-CD3 + CD28, 8 pt (IC50).

Read-outs that look alike come from different tables or passages of the source.

On to `O=C1COc2cc(Nc3ncc(F)c(NC[C@@H]4CCCN5CCCC[C@H]45)n3)ccc2N1CC1CC1` [Compound 26, 7-(4-(((1S,9aR)-octahydro-1H-quinolizin-1-yl)methylamino)-5-fluoropyrimidin-2-ylamino)-4-(cyclopropylmethyl)-2H-benzo[b][1,4]oxazin-3(4H)-one], for which the IC50 under setting [1] is less than 30 µM and the IC50 under setting [2] is 0.169 µM.
As for `COc1cnc(Nc2ccc(C3CC3)c(C#N)c2)nc1NC[C@@H]1CCCN2CCCC[C@H]12` [Compound 81, 5-(4-(((1S,9aR)-octahydro-1H-quinolizin-1-yl)methylamino)-5-methoxypyrimidin-2-ylamino)-2-cyclopropylbenzonitrile], the IC50 under setting [1] is less than 30 µM and the IC50 under setting [2] is 1.31 µM.
`Cn1nnn(-c2cc(Nc3ncc(Cl)c(NC[C@@H]4CCCN5CCCC[C@H]45)n3)c(F)cc2O)c1=O` [Compound 146, 1-(5-((5-chloro-4-((((1S,9aR)-octahydro-2H-quinolizin-1-yl)methyl)amino)pyrimidin-2-yl)amino)-4-fluoro-2-hydroxyphenyl)-4-methyl-1,4-dihydro-5H-tetrazol-5-one]: the half-maximal inhibitory concentration (IC50) is less than 30 µM under setting [1] and 1.98 µM under setting [2].
As to `Fc1cnc(Nc2ccccc2)nc1NC[C@@H]1CCCN2CCCC[C@H]12` [Compound 13, 5-fluoro-N4-(((1S,9aR)-octahydro-1H-quinolizin-1-yl)methyl)-N2-phenylpyrimidine-2,4-diamine], the IC50 by setting is: under setting [1], less than 30 µM; under setting [2], 4.48 µM.
For `COc1cnc(Nc2cc(-n3nnnc3C)ccc2F)nc1NC[C@@H]1CCCN2CCCC[C@H]12` [Compound 76, N2-(2-fluoro-5-(5-methyl-1H-tetrazol-1-yl)phenyl)-N4-(((1S,9aR)-octahydro-1H-quinolizin-1-yl)methyl)-5-methoxypyrimidine-2,4-diamine], the half-inhibitory concentration (IC50) by setting is: under setting [1], less than 30 µM; under setting [2], 6.45 µM.
Take `Cc1nnnn1-c1cc(Nc2ncc(C#N)c(NC[C@@H]3CCCN4CCCC[C@H]34)n2)ccc1F` [Compound 114, 4-(((1S,9aR)-octahydro-1H-quinolizin-1-yl)methylamino)-2-(4-fluoro-3-(5-methyl-1H-tetrazol-1-yl)phenylamino)pyrimidine-5-carbonitrile]: the IC50 reads like this: under setting [1], less than 30 µM; under setting [2], 0.0365 µM.
In the case of `Cc1ccc(Nc2ncc(C(F)(F)F)c(NC[C@@H]3CCCN4CCCC[C@H]34)n2)cc1-n1cnnn1` [Compound 101, 5-(trifluoromethyl)-N4-(((1S,9aR)-octahydro-1H-quinolizin-1-yl)methyl)-N2-(4-methyl-3-(1H-tetrazol-1-yl)phenyl)pyrimidine-2,4-diamine], the half-maximal inhibitory concentration (IC50) is less than 30 µM under setting [1] and 10.7 µM under setting [2].
The matching figures for `Cc1nnnn1-c1cc(Nc2ncc(Cl)c(NC[C@@H]3CCCN4CCCC[C@H]34)n2)ccc1F` [Compound 35, 5-chloro-N2-(4-fluoro-3-(5-methyl-1H-tetrazol-1-yl)phenyl)-N4-(((1S,9aR)-octahydro-1H-quinolizin-1-yl)methyl)pyrimidine-2,4-diamine]: less than 30 µM and 0.0542 µM.
The matching figures for `C[C@H](O)COc1cc(F)c(Nc2ncc(Cl)c(NC[C@@H]3CCCN4CCCC[C@H]34)n2)cc1-n1nnn(C)c1=O` [Compound 152, 1-(5-((5-chloro-4-((((1S,9aR)-octahydro-2H-quinolizin-1-yl)methyl)amino)pyrimidin-2-yl)amino)-4-fluoro-2-((S)-2-hydroxypropoxy)phenyl)-4-methyl-1,4-dihydro-5H-tetrazol-5-one]: less than 30 µM and 0.0898 µM.
With `Cc1cnc(Nc2cc(-n3cnnn3)c(C3CC3)cc2F)nc1NC[C@@H]1CCCN2CCCC[C@H]12` [Compound 59, N2-(4-cyclopropyl-2-fluoro-5-(1H-tetrazol-1-yl)phenyl)-N4-(((1S,9aR)-octahydro-1H-quinolizin-1-yl)methyl)-5-methylpyrimidine-2,4-diamine], the IC50 is less than 30 µM under setting [1] and 0.16 µM under setting [2].

As usually defined, the IC50 is the concentration needed to halve the response being measured.
